Publication PMC12298351, “Novel 3,19-(N-Phenyl-3-(4-fluorophenyl)-pyrazole) Acetal of Andrographolide Promotes Cell Cycle Arrest and Apoptosis in MDA-MB-231 Breast Cancer Cells” (Pharmaceuticals, 2025)

Tests used:
HCT-116 = assay type: cell-based; details: HCT-116, Colon
SNB-19 = assay type: cell-based; details: SNB-19, CNS; for CC50: read-out: 50% lethal concentration (LC50)
M14 = assay type: cell-based; details: M14, Melanoma
TK-10 = assay type: cell-based; details: TK-10, Renal; for CC50: read-out: 50% lethal concentration (LC50)
[1] = DPPH radical scavenging assay; details: 25 µM test compound, 0.1 mM DPPH, acetonitrile, 30 min
In short: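 Compounds at 25 µM in acetonitrile mixed 1:2 with 0.1 mM DPPH in acetonitrile, kept 30 min in the dark at room temperature. Absorbance read at 517 nm; % scavenging = (Ac − As)/Ac × 100, Ac being DPPH blank. Ascorbic acid positive control.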

HL-60(TB) = details: for GI50 / Total growth inhibition (TGI): Leukemia; for CC50: read-out: 50% lethal concentration (LC50), Leukemia
K-562 = details: K-562, Leukemia; for CC50: read-out: 50% lethal concentration (LC50)
MOLT-4 = details: MOLT-4, Leukemia; for CC50: read-out: 50% lethal concentration (LC50)
RPMI-8226 = details: RPMI-8226, Leukemia; for CC50: read-out: 50% lethal concentration (LC50)
COLO 205 = details: COLO 205, Colon
KM12 = details: KM12, Colon
SW-620 = details: SW-620, Colon; for CC50: read-out: 50% lethal concentration (LC50)
SF-268 = details: SF-268, CNS; for CC50: read-out: 50% lethal concentration (LC50)
SF-295 = details: SF-295, CNS; for CC50: read-out: 50% lethal concentration (LC50)
SF-539 = details: SF-539, CNS; for CC50: read-out: 50% lethal concentration (LC50)
SNB-75 = details: SNB-75, CNS; for CC50: read-out: 50% lethal concentration (LC50)
U251 = details: U251, CNS
MALME-3M = details: for GI50 / Total growth inhibition (TGI): Melanoma
SK-MEL-28 = details: SK-MEL-28, Melanoma; for CC50: read-out: 50% lethal concentration (LC50)
SK-MEL-5 = details: SK-MEL-5, Melanoma; for CC50: read-out: 50% lethal concentration (LC50)
OVCAR-8 = details: OVCAR-8, Ovarian; for CC50: read-out: 50% lethal concentration (LC50)
786-0 = details: 786-0, Renal; for CC50: read-out: 50% lethal concentration (LC50)
ACHN = details: for GI50 / Total growth inhibition (TGI): Renal; for CC50: read-out: 50% lethal concentration (LC50), Renal
SN12C = details: for GI50 / Total growth inhibition (TGI): Renal; for CC50: read-out: 50% lethal concentration (LC50), Renal
UO-31 = details: UO-31, Renal; for CC50: read-out: 50% lethal concentration (LC50)
PC-3 = details: PC-3, Prostate; for CC50: read-out: 50% lethal concentration (LC50)
MCF7 = details: MCF7, Breast; for CC50: read-out: 50% lethal concentration (LC50)
MDA-MB-231 = details: for GI50: MDA-MB-231, Breast; for Total growth inhibition (TGI) / CC50: MDA-MB-231/ATCC, Breast; for CC50: read-out: 50% lethal concentration (LC50)
T-47D = details: for GI50 / Total growth inhibition (TGI): Breast; for CC50: read-out: 50% lethal concentration (LC50), Breast
[2] = read-out: 50% lethal concentration (LC50)

Compound `C=C1CCC2C3(C)COC(c4cn(-c5ccccc5)nc4-c4cccc(Cl)c4)OC3CCC2(C)C1CC=C1C(=O)OCC1O` (centres unmarked) [1d] has a GI50 (HCT-116) of 1.04 µM, a Total growth inhibition (TGI) (HCT-116) of 3.48 µM and a CC50 (HCT-116; [2]) of 45.2 µM. The GI50 (SNB-19) was 2.24 µM, the Total growth inhibition (TGI) (SNB-19) was 6.04 µM and the CC50 (SNB-19) was 54.8 µM. The GI50 (M14) was 1.69 µM, the Total growth inhibition (TGI) (M14) was 3.88 µM and the GI50 (TK-10) was 2.14 µM. For the same compound, the Total growth inhibition (TGI) (TK-10) was 4.56 µM, the CC50 (TK-10) was 9.71 µM and the “% DPPH radical scavenging activity” value [1] was 59.32%. The GI50 (HL-60(TB)) was 1.38 µM, the Total growth inhibition (TGI) (HL-60(TB)) was 4.97 µM and the CC50 (HL-60(TB)) was over 100 µM. It also gave a GI50 (K-562) of 2.41 µM, a CC50 (K-562) of over 100 µM and a GI50 (MOLT-4) of 1.14 µM. It also gave a Total growth inhibition (TGI) (MOLT-4) of 3.82 µM, a CC50 (MOLT-4) of over 100 µM and a GI50 (RPMI-8226) of 1.38 µM. The Total growth inhibition (TGI) (RPMI-8226) was over 100 µM, the CC50 (RPMI-8226) was over 100 µM and the GI50 (COLO 205) was 1.98 µM. The Total growth inhibition (TGI) (COLO 205) was 4.24 µM, the GI50 (KM12) was 1.67 µM and the Total growth inhibition (TGI) (KM12) was 3.32 µM. The GI50 (SW-620) was 1.53 µM, the Total growth inhibition (TGI) (SW-620) was 3.4 µM and the CC50 (SW-620) was 7.55 µM. The GI50 (SF-268) was 1.6 µM, the Total growth inhibition (TGI) (SF-268) was 3.34 µM and the CC50 (SF-268) was 6.94 µM. It also gave a GI50 (SF-295) of 1.42 µM, a Total growth inhibition (TGI) (SF-295) of 2.75 µM and a CC50 (SF-295) of 5.36 µM. It also gave a GI50 (SF-539) of 1.63 µM, a Total growth inhibition (TGI) (SF-539) of 3.02 µM and a CC50 (SF-539) of 5.57 µM. The GI50 (SNB-75) was 1.12 µM, the Total growth inhibition (TGI) (SNB-75) was 3.14 µM and the CC50 (SNB-75) was 8.84 µM. It also gave a GI50 (U251) of 1.59 µM, a Total growth inhibition (TGI) (U251) of 3 µM and a GI50 (MALME-3M) of 1.47 µM. The Total growth inhibition (TGI) (MALME-3M) was 2.85 µM, the GI50 (SK-MEL-28) was 1.8 µM and the Total growth inhibition (TGI) (SK-MEL-28) was 3.37 µM. For the same compound, the CC50 (SK-MEL-28) was 6.33 µM, the GI50 (SK-MEL-5) was 1.63 µM and the Total growth inhibition (TGI) (SK-MEL-5) was 3 µM. The CC50 (SK-MEL-5) was 5.53 µM, the GI50 (OVCAR-8) was 1.53 µM and the Total growth inhibition (TGI) (OVCAR-8) was 3.44 µM. For the same compound, the CC50 (OVCAR-8) was over 100 µM, the GI50 (786-0) was 2.31 µM and the Total growth inhibition (TGI) (786-0) was 6.1 µM. For the same compound, the CC50 (786-0) was 83.4 µM, the GI50 (ACHN) was 1.64 µM and the Total growth inhibition (TGI) (ACHN) was 3.01 µM. For the same compound, the CC50 (ACHN) was 5.52 µM, the GI50 (SN12C) was 1.65 µM and the Total growth inhibition (TGI) (SN12C) was 3.62 µM. For the same compound, the CC50 (SN12C) was 7.92 µM, the GI50 (UO-31) was 1.3 µM and the Total growth inhibition (TGI) (UO-31) was 2.71 µM. It also gave a CC50 (UO-31) of 5.63 µM, a GI50 (PC-3) of 2.07 µM and a CC50 (PC-3) of over 100 µM. For the same compound, the GI50 (MCF7) was 1.48 µM, the Total growth inhibition (TGI) (MCF7) was 66.8 µM and the CC50 (MCF7) was over 100 µM. For the same compound, the GI50 (MDA-MB-231) was 1.49 µM, the Total growth inhibition (TGI) (MDA-MB-231) was 2.99 µM and the CC50 (MDA-MB-231) was 5.97 µM. The GI50 (T-47D) was 1.63 µM, the Total growth inhibition (TGI) (T-47D) was 4.76 µM and the CC50 (T-47D) was over 100 µM.

`C=C1CCC2C3(C)COC(c4cn(-c5ccccc5)nc4-c4cccc([N+](=O)[O-])c4)OC3CCC2(C)C1CC=C1C(=O)OCC1O` (centres unmarked) [1b] gave a GI50 (HCT-116) of 1.99 µM, a Total growth inhibition (TGI) (HCT-116) of 4.25 µM and a GI50 (SNB-19) of 3.64 µM. For the same compound, the Total growth inhibition (TGI) (SNB-19) was 15 µM, the CC50 (SNB-19) was 60 µM and the GI50 (M14) was 2.08 µM. It also gave an LC50 (50% lethal concentration) (M14) of 9.85 µM, a Total growth inhibition (TGI) (M14) of 4.52 µM and a GI50 (TK-10) of 2.22 µM. The Total growth inhibition (TGI) (TK-10) was 5.82 µM, the CC50 (TK-10) was over 100 µM and the “% DPPH radical scavenging activity” value [1] was 60.68%. It also gave a GI50 (HL-60(TB)) of 1.73 µM, a Total growth inhibition (TGI) (HL-60(TB)) of over 100 µM and a CC50 (HL-60(TB)) of over 100 µM. It also gave a GI50 (K-562) of 2.16 µM, a Total growth inhibition (TGI) (K-562) of over 100 µM and a CC50 (K-562) of over 100 µM. For the same compound, the GI50 (MOLT-4) was 2.87 µM, the Total growth inhibition (TGI) (MOLT-4) was over 100 µM and the CC50 (MOLT-4) was over 100 µM. It also gave a GI50 (RPMI-8226) of 2.45 µM, a Total growth inhibition (TGI) (RPMI-8226) of over 100 µM and a CC50 (RPMI-8226) of over 100 µM. The GI50 (COLO 205) was 2.41 µM, the Total growth inhibition (TGI) (COLO 205) was 5.06 µM and the CC50 (COLO 205; [2]) was 12.7 µM. It also gave a GI50 (KM12) of 1.99 µM, a Total growth inhibition (TGI) (KM12) of 4.38 µM and a GI50 (SW-620) of 2.21 µM. It also gave a Total growth inhibition (TGI) (SW-620) of 5.13 µM, a CC50 (SW-620) of over 100 µM and a GI50 (SF-268) of 7.65 µM. For the same compound, the Total growth inhibition (TGI) (SF-268) was over 100 µM, the CC50 (SF-268) was over 100 µM and the GI50 (SF-295) was 1.68 µM. It also gave a Total growth inhibition (TGI) (SF-295) of 3.19 µM, a CC50 (SF-295) of 6.05 µM and a GI50 (SF-539) of 1.74 µM. It also gave a Total growth inhibition (TGI) (SF-539) of 3.18 µM, a CC50 (SF-539) of 5.79 µM and a GI50 (SNB-75) of 7.34 µM. For the same compound, the Total growth inhibition (TGI) (SNB-75) was 50 µM, the CC50 (SNB-75) was over 100 µM and the GI50 (U251) was 1.74 µM. It also gave a Total growth inhibition (TGI) (U251) of 3.35 µM, a CC50 (U251; [2]) of 6.46 µM and a GI50 (MALME-3M) of 1.78 µM. The Total growth inhibition (TGI) (MALME-3M) was 3.55 µM, the CC50 (MALME-3M; read-out: 50% lethal concentration (LC50), Melanoma) was 7.05 µM and the GI50 (SK-MEL-28) was 2.04 µM. The Total growth inhibition (TGI) (SK-MEL-28) was 4.06 µM, the CC50 (SK-MEL-28) was 8.11 µM and the GI50 (SK-MEL-5) was 1.63 µM. The Total growth inhibition (TGI) (SK-MEL-5) was 3 µM, the CC50 (SK-MEL-5) was 5.53 µM and the GI50 (OVCAR-8) was 1.9 µM. For the same compound, the Total growth inhibition (TGI) (OVCAR-8) was 5.04 µM, the CC50 (OVCAR-8) was over 100 µM and the GI50 (786-0) was 3.04 µM. It also gave a Total growth inhibition (TGI) (786-0) of 10.3 µM, a CC50 (786-0) of over 100 µM and a GI50 (ACHN) of 1.89 µM. It also gave a Total growth inhibition (TGI) (ACHN) of 3.62 µM, a CC50 (ACHN) of 6.94 µM and a GI50 (SN12C) of 2.93 µM. For the same compound, the Total growth inhibition (TGI) (SN12C) was 10.3 µM, the CC50 (SN12C) was over 100 µM and the GI50 (UO-31) was 1.82 µM. The Total growth inhibition (TGI) (UO-31) was 5.46 µM, the CC50 (UO-31) was 35.7 µM and the GI50 (PC-3) was 2.75 µM. For the same compound, the Total growth inhibition (TGI) (PC-3) was 9.04 µM, the CC50 (PC-3) was over 100 µM and the GI50 (MCF7) was 2.64 µM. It also gave a Total growth inhibition (TGI) (MCF7) of over 100 µM, a CC50 (MCF7) of over 100 µM and a GI50 (MDA-MB-231) of 1.84 µM. For the same compound, the Total growth inhibition (TGI) (MDA-MB-231) was 3.44 µM, the CC50 (MDA-MB-231) was 6.44 µM and the GI50 (T-47D) was 1.76 µM. It also gave a Total growth inhibition (TGI) (T-47D) of 5.02 µM and a CC50 (T-47D) of over 100 µM.
